Results as given in US8778966B2, “Quinolinone derivatives as PARP and tank inhibitors” (Janssen Pharmaceutica, NV, priority 2007, dated 2014).

How the values were obtained:
HCT116 cells [1] = experiment: Antiproliferative activity, Alamar Blue assay, HCT116 cells; format: cell-based, human; conditions: Homo sapiens, HCT-116, HCT116 cells; read-out: HCT116 antiproliferative activity pIC50 (converted)
Outline: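 HCT116 cells seeded, adhered 24 h, then exposed to compound for 4 days; Alamar Blue (resazurin) added for 4 h at 37 °C, fluorescence read at 540/590 nm. Viability as % of untreated control, triplicate wells; IC50 by probit analysis, reported as pIC50.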

HCT116 cells [2] = experiment: Mitotic arrest assay on HCT116 cells (phospho-histone H3 Ser10); format: cell-based, human; conditions: lowest active dose; for minimal effective concentration: Homo sapiens, HCT-116, HCT116 cells, read-out: Mitotic arrest HCT116 LAD (converted)
Source text: Phosphorylation of histone H3 is tightly correlated with chromosome condensation during both mitosis and meiosis. The assay is a cellular immunosorbent assay wherein the sole antibody is labelled with a detectable conjugate. The phospho-histone H3 (ser10) antibody detects endogenous levels of histone H3 only when phosphorylated at serine 10. […] In parallel with antibody detection, the nuclei of the cells are stained with Hoechst 33342 for cell-counting. Cells are detected and analysed using the InCell Analyzer 1000 from GE Healthcare. Since both the antibody-detection as well as the Hoechst-staining are in the nucleus, the dual area object intensity algorithm is used for analysing the wells.
All compounds tested were dissolved in DMSO and further dilutions were made in culture medium. Final DMSO concentrations never exceeded 0.1% (v/v).
HCT116 cells (supplier: ATCC) (human colon carcinoma cell line) were cultivated in Mc Coy's 5 A medium (supplier: Gibco) supplemented with 10% foetal calf serum (FCS), 2 mM L-glutamine and gentamycin at 37° C. in a humidified incubator with 5% CO2.
HCT116 cells were seeded at 20.000 cells per well in a 96 well plate (black/clear bottom, poly-D-lysine coated, supplier Greiner), cultured overnight to adhere to the bottom of the plate and treated with compound for 6 hours at 37° C. in a humidified incubator. After incubation, the medium was removed and cells were fixed using 100 μl/well formaldehyde (Accustain®, Formaline solution 10% neutral buffered, contains 4% formaldehyde w/v, supplier: Sigma) was added. After incubation for 15 minutes at room temperature, the formaldehyde was removed and cells were incubated with methanol (−20° C.) for 15 minutes at room temperature. After incubation, cells were washed once with phosphate-buffered saline (PBS —CaCl2, —MgCl2, suppier: Gibco)/0.05% Tween 20. The anti-phospho-histone H3 (Ser10) Alexa Fluor 488 antibody (supplier: Cell signalling) is used for detection of the cells inmitosis. The antibody was diluted 1/50 in 5% bovine serum albumins (BSA) and 50 μl/well was used for incubation overnight at room temperature in the dark.
A 1/2000 dilution of Hoechtst 33342 (10 mg/ml, supplier: Invitrogen) was made and 100 μl/well was added for at least 30 minutes before acquiring images. The absorbance at dual wavelengths of 360/480 nm was measured using the InCell Analyzer 1000 from GE Healthcare and the results were then analyzed.
For each experiment, controls (containing no drug) and a blank incubation (containing no cells or drugs) were run in parallel. Analysis was done in triplicate. Low cell count wells were invalidated. The blank value was subtracted from all control and sample values and divided by the standard deviation of the measurements. The compounds were considered active when the obtained value (sigma) was >5. Herein the effects of test compounds are expressed as the lowest dose giving a sigma value of >5 (LAD) (see table F-2).

Row | SMILES | IC50 (HCT116 cells [1]) [nM] | minimal effective concentration (HCT116 cells [2]) [µM] | Mitotic arrest HCT116 LAD (HCT116 cells [2]; HCT116 cells, the values are: pLAD (−log M lowest active dose))
1 | CCc1cc2ccc(C(C)(C#N)Cc3cc(F)cc(Cl)c3)cc2[nH]c1=O (centres unmarked) [Compound 126] | 200 | 0.1 | 
2 | CCc1cc2ccc(C(C)(C#N)Cc3cc(F)cc(C(F)(F)F)c3)cc2[nH]c1=O (centres unmarked) [Compound 127] | 501 | 0.316 | 
3 | CCc1cc2ccc(C(C)(C#N)Cc3cc(F)cc(F)c3)cc2[nH]c1=O (centres unmarked) [Compound 128] | 126 | 0.1 | 
4 | CCc1cc2ccc(C(C)(C#N)Cc3cccc(S(C)(=O)=O)c3)cc2[nH]c1=O (centres unmarked) [Compound 129] | 1580 | 0.316 | 
5 | CCc1cc2ccc(C(C)(C#N)Cc3cccc(Cl)c3F)cc2[nH]c1=O (centres unmarked) [Compound 130] | 158 | 0.1 | 
6 | CCc1cc2ccc(C(C)(C#N)Cc3cc(C(F)(F)F)cc(C(F)(F)F)c3)cc2[nH]c1=O (centres unmarked) [Compound 131] | 6310 | 3.16 | 
7 | CCc1cc2ccc(C(C)(C#N)Cc3cccc(C)c3F)cc2[nH]c1=O (centres unmarked) [Compound 132] | 398 | 0.1 | 
8 | CCc1cc2ccc(C(C)(C#N)Cc3cc(Br)cc(Br)c3)cc2[nH]c1=O (centres unmarked) [Compound 133] | 251 | 0.1 | 
9 | CCc1cc2ccc(C(C)(C#N)Cc3cccc(C(F)(F)F)c3F)cc2[nH]c1=O (centres unmarked) [Compound 134] | 501 | 0.316 | 
10 | CCc1cc2ccc(C(C)(C#N)Cc3c(Cl)cccc3Cl)cc2[nH]c1=O (centres unmarked) [Compound 135] | 316 | 0.2 | 
11 | CCc1cc2ccc(C(C)(C#N)Cc3c(Cl)cccc3Br)cc2[nH]c1=O (centres unmarked) [Compound 136] | 316 | 0.316 | 
12 | CCc1cc2ccc(C(C)(C#N)Cc3ccc(F)cc3F)cc2[nH]c1=O (centres unmarked) [Compound 137] | 251 | 0.316 | 
13 | CCc1cc2ccc(C(C)(C#N)Cc3c(F)cccc3F)cc2[nH]c1=O (centres unmarked) [Compound 138] | 251 | 0.2 | 
14 | CCc1cc2ccc(C(C)(C#N)Cc3ccc(F)cc3Br)cc2[nH]c1=O (centres unmarked) [Compound 139] | 126 | 0.1 | 
15 | CCc1cc2ccc(C(C)(C#N)Cc3cccc(Cl)c3)cc2[nH]c1=O (centres unmarked) [Compound 140] | 200 | 0.316 | 
16 | CCc1cc2ccc(C(C)(C#N)Cc3cc(Cl)cc(Cl)c3)cc2[nH]c1=O (centres unmarked) [Compound 141] | 126 | 0.1 | 
17 | CCc1cc2ccc(C(C)(C#N)CC3CN(C)c4ccccc4O3)cc2[nH]c1=O (centres unmarked) [Compound 156] | 2000 | 0.316 | 
18 | CCc1cc2ccc(C(C)(C#N)CCOc3ccc(C#N)cc3)cc2[nH]c1=O (centres unmarked) [Compound 161] | 501 | 0.1 | 
19 | CCc1cc2ccc(C(C)(C#N)CCOc3ccc4oc(C)c(C)c4c3)cc2[nH]c1=O (centres unmarked) [Compound 162] | > 10000 | 3.16 | 
20 | CCc1cc2ccc(C(C)(C#N)CCOc3cccc4c3OCCO4)cc2[nH]c1=O (centres unmarked) [Compound 163] | 398 | 1 | 
21 | CCc1cc2ccc(C(C)(C#N)Cc3cccc(CCC#N)c3)cc2[nH]c1=O (centres unmarked) [Compound 165] | 631 |  | 6.5
22 | CCc1cc2ccc(C(C#N)(CCOc3ccccc3)C3CC3)cc2[nH]c1=O (centres unmarked) [Compound 166] | 10000 | 1 | 
23 | CCc1cc2ccc(C(C)(C#N)CCOc3ccc(C(C)(C)C)cc3)cc2[nH]c1=O (centres unmarked) [Compound 167] | > 10000 | 1 | 

Further lines, with some results ahead:

Row | IC50 (HCT116 cells [1]) [nM] | SMILES | minimal effective concentration (HCT116 cells [2]) [µM] | Mitotic arrest HCT116 LAD (HCT116 cells [2]; HCT116 cells, the values are: pLAD (−log M lowest active dose))
24 | 316 | CCOc1ccccc1OCCC(C)(C#N)c1ccc2cc(CC)c(=O)[nH]c2c1 (centres unmarked) [Compound 142] | 0.316 | 
25 | 501 | CCc1cc2ccc(C(C)(C#N)CCOc3cccc(C)c3)cc2[nH]c1=O (centres unmarked) [Compound 143] | 0.316 | 
26 | 501 | CCc1cc2ccc(C(C)(C#N)CCOc3ccc(F)cc3)cc2[nH]c1=O (centres unmarked) [Compound 144] | 0.316 | 
27 | 398 | CCc1cc2ccc(C(C)(C#N)CCOc3ccccc3)cc2[nH]c1=O (centres unmarked) [Compound 145] | 0.316 | 
28 | 398 | CCc1cc2ccc(C(C)(C#N)CCOc3ccc(Cl)cc3)cc2[nH]c1=O (centres unmarked) [Compound 146] | 0.316 | 
29 | 501 | CCc1cc2ccc(C(C)(C#N)CCOc3ccc(OC)cc3)cc2[nH]c1=O (centres unmarked) [Compound 147] | 0.316 | 
30 | 316 | CCc1cc2ccc(C(C)(C#N)CCOc3ccccc3C)cc2[nH]c1=O (centres unmarked) [Compound 148] | 0.316 | 
31 | 631 | CCc1cc2ccc(C(C)(C#N)CCOc3ccc(C)cc3)cc2[nH]c1=O (centres unmarked) [Compound 149] | 0.316 | 
32 | 631 | CCc1cc2ccc(C(C)(C#N)CCOc3cccc(Cl)c3)cc2[nH]c1=O (centres unmarked) [Compound 151] | 0.316 | 
33 | 631 | CCc1cc2ccc(C(C)(C#N)CCOc3ccccc3Cl)cc2[nH]c1=O (centres unmarked) [Compound 152] | 0.316 | 
34 | 200 | CCc1cc2ccc(C(C)(C#N)CCOc3ccccc3Br)cc2[nH]c1=O (centres unmarked) [Compound 153] | 0.316 | 
35 | 398 | CCc1cc2ccc(C(C)(C#N)CCOc3ccc(Cl)cc3Cl)cc2[nH]c1=O (centres unmarked) [Compound 154] | 0.316 | 
36 | 6310 | CCc1cc2ccc(C(C)(C#N)CCOc3ccc(SC)cc3)cc2[nH]c1=O (centres unmarked) [Compound 155] | 1 | 
37 | 1580 | CCc1cc2ccc(C(C)(C#N)CCOc3ccc4ccccc4c3)cc2[nH]c1=O (centres unmarked) [Compound 157] | 0.316 | 
38 | 1260 | CCc1cc2ccc(C(C)(C#N)CCOc3cccc4ccccc34)cc2[nH]c1=O (centres unmarked) [Compound 158] | 0.1 | 
39 | > 10000 | CCc1cc2ccc(C(C)(C#N)CCOc3ccccc3C(C)=O)cc2[nH]c1=O (centres unmarked) [Compound 159] | 3.16 | 
40 | 2000 | CCc1cc2ccc(C(C)(C#N)CCOc3ccc(Br)cc3)cc2[nH]c1=O (centres unmarked) [Compound 160] | 0.316 | 
